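1) Cells in 96-well plates. 2) Compound, 48 h, 5 concentrations. 3) Linear interpolation between surrounding doses. 4) Unreached endpoint = highest concentration. TGI is the concentration that stops growth completely.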
Assays:
Test in all cases: NCI anticancer screen, dose series, 48 h
[1] = test system: NCI/ADR-RES ovarian
[2] = test system: SN12C renal
[3] = test system: OVCAR-8 ovarian
[4] = test system: SR leukemia
[5] = test system: ACHN renal
[6] = test system: U251 CNS
[7] = test system: BT-549 breast
[8] = test system: T-47D breast
[9] = test system: CCRF-CEM leukemia
[10] = test system: OVCAR-4 ovarian
[11] = test system: HT29 colon

Row | SMILES | TGI [1] | TGI [2] | TGI [3] | TGI [4] | TGI [5] | TGI [6] | TGI [7] | TGI [8] | TGI [9] | TGI [10] | TGI [11]
1 | CC1(C)CC[C@]2(C(=O)O)[C@H](O)C[C@]3(C)C(=CC[C@@H]4[C@@]5(C)CC[C@H](OC6OC(C(=O)O)C(O)C(O)C6O)C(C)(C)[C@@H]5CC[C@]43C)[C@@H]2C1 (stereo partly drawn) | > 100 µM | 94.9 µM | > 100 µM | 46.7 µM | > 100 µM | > 100 µM | 34.2 µM | > 100 µM | > 100 µM | 58.4 µM | > 100 µM
2 | CC1(C)C2CCC(N)(C2)C1O (stereo not drawn) | > 100 µM | > 100 µM | > 100 µM | > 100 µM | > 100 µM | > 100 µM | > 100 µM | > 100 µM | > 100 µM | > 100 µM | 
3 | Nc1ccc(-c2nc3ccccc3s2)cc1Br | > 100 µM | > 100 µM | > 100 µM | > 100 µM | > 100 µM | > 100 µM | > 100 µM | > 100 µM | > 100 µM | > 100 µM | > 100 µM
4 | CN(C)c1ccc(/C=c2/c3cc([N+](=O)[O-])ccc3n3c2cc(-c2ccccc2)[n+]3C)cc1 | > 100 µM |  | 27.7 µM | 3.02 µM | 19.6 µM | 1.32 µM | 13 µM | 1.81 µM | 5.57 µM | 8.33 µM | 6.76 µM
5 | C#CCOC(=O)C(N)CCSC (stereo not drawn) | > 100 µM | > 100 µM | > 100 µM | > 100 µM | > 100 µM | > 100 µM | > 100 µM | > 100 µM | > 100 µM |  | > 100 µM
6 | CC1CN=C(c2ccc(COc3ccc(C4=NCC(C)N4)cc3)cc2)N1 (stereo not drawn) | > 100 µM | > 100 µM | > 100 µM |  | > 100 µM | > 100 µM | > 100 µM | > 100 µM | > 100 µM | > 100 µM | > 100 µM
7 | O=C(O)CC(O)(C(=O)O)C(O)C(=O)O (stereo not drawn) | > 1000 µM | > 1000 µM | > 1000 µM |  | > 1000 µM | > 1000 µM | > 1000 µM | > 1000 µM | > 1000 µM | > 1000 µM | > 1000 µM
8 | Cc1ncc([N+](=O)[O-])n1CCNC(=O)CCCCCn1ccnc1[N+](=O)[O-] | > 100 µM | > 100 µM | > 100 µM | > 100 µM | > 100 µM | > 100 µM | > 100 µM | > 100 µM | > 100 µM |  | > 100 µM
9 | C=C1c2nc3ccccc3n2C=C(c2ccc(OC)cc2)N1c1ccc(OCCN2CCOCC2)cc1 | > 100 µM | > 100 µM | > 100 µM | > 55.2 µM | > 100 µM | > 100 µM | > 100 µM | > 100 µM | > 86.9 µM | > 100 µM | > 100 µM
10 | O=C(Oc1cccc(Cl)c1)c1cc2cc(CCl)ccc2oc1=O | > 100 µM | > 100 µM | > 100 µM | > 100 µM | 38.5 µM |  | > 100 µM | > 100 µM |  | > 100 µM | > 100 µM
11 | CC1=CC(=O)/C(=C/n2c(=S)[nH]c3ccccc32)C(=O)O1 | > 100 µM | > 100 µM | > 100 µM |  | > 100 µM | > 100 µM | > 100 µM | > 100 µM | > 100 µM | > 100 µM | > 100 µM
12 | CCCCNC(=S)Nc1nc(C(=O)NNC(=O)c2ccccc2)cs1 | 64.2 µM | 38 µM | 66.9 µM | > 100 µM | 37.3 µM | > 100 µM | 41.4 µM | 39.4 µM | > 100 µM | > 100 µM | > 100 µM
13 | C#CCCCC(=O)N(C(=O)CS(=O)CC)c1ccccc1 (stereo not drawn) | > 100 µM | > 100 µM | > 100 µM | > 100 µM | > 100 µM | > 100 µM | > 100 µM | > 100 µM | > 100 µM | > 100 µM | > 100 µM
14 | OCC(O)C(O)C(O)C(O)/C=N/Nc1nc(O)c(/C=C2\C=Nc3ccccc32)[nH]1 (stereo not drawn) | > 100 µM | > 100 µM | > 100 µM |  | > 100 µM | > 100 µM | > 100 µM | > 100 µM | > 100 µM | > 100 µM | > 100 µM
15 | OC1c2ccccc2C(O)C2OC12 (stereo not drawn) | > 100 µM | > 100 µM | > 100 µM | > 100 µM | > 100 µM | > 100 µM | > 100 µM | > 100 µM | > 100 µM | > 100 µM | > 100 µM
16 | C=CCC(CNC(=O)OCc1ccccc1)OC(=O)OCc1ccccc1 (stereo not drawn) | > 100 µM | > 100 µM | > 100 µM | 62 µM | > 100 µM | > 100 µM | > 100 µM | > 100 µM | > 100 µM | > 100 µM | > 100 µM
17 | CCN(CC)CCC(=O)c1ccc(Oc2ccc(F)cc2)cc1 | 83.4 µM | 32.1 µM | 57.6 µM | > 100 µM | 32.4 µM | 31.1 µM | 32.8 µM | 42 µM | 50.1 µM | > 100 µM | 38.6 µM
18 | O=C1c2cc([N+](=O)[O-])sc2C(=O)c2ccsc21 | 2.78 µM | 1.33 µM | 2.01 µM | < 0.0235 µM | 0.768 µM | 0.373 µM | 1.27 µM | 1.53 µM | 0.227 µM | 0.947 µM | 1.48 µM
19 | Cc1ccc2c(=O)c(-c3n[nH]c(=S)s3)c[nH]c2n1 | > 100 µM | > 100 µM | > 100 µM |  | > 100 µM | > 100 µM | > 100 µM | > 100 µM | > 100 µM | > 100 µM | > 100 µM
20 | COc1cc2c(c(OC)c1OC)-c1ccc(SC)cc1C(=O)CC2 |  | > 100 µM | > 100 µM | > 100 µM | > 100 µM | > 100 µM | > 100 µM | > 100 µM | > 100 µM | > 100 µM | < 0.01 µM
